Assay results as given in paper PMC9865890, “N-Derivatives of (Z)-Methyl 3-(4-Oxo-2-thioxothiazolidin-5-ylidene)methyl)-1H-indole-2-carboxylates as Antimicrobial Agents—In Silico and In Vitro Evaluation” (Pharmaceuticals, 2023).
Values after ≈ are worked out from the molar mass of the structure shown. Like-named read-outs stand apart in the source and are kept apart here.

Columns and labels:
[1] = system: Aspergillus versicolor (ATCC 11730); test: Antifungal bioassay (MIC/MFC); format: cell-based; conditions: ATCC11730, A.v. (A. versicolor)
Method in brief: (§1)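 Duplicate runs per organism.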

[2] = system: Penicillium funiculosum (ATCC 36839); test: Antifungal bioassay (MIC/MFC); format: cell-based; conditions: Talaromyces funiculosus, ATCC36839; P.f. (P. funiculosum)
Method in brief: as §1

P. ochrochloron = test: Antifungal bioassay (MIC/MFC); format: cell-based; conditions: for MIC: P.o. (P. ochrochloron; text: P. ochramensis); for MFC: P.o. (P. ochrochloron)
Method in brief: as §1

[3] = system: Aspergillus niger (ATCC 6275); test: Antifungal bioassay (MIC/MFC); format: cell-based; conditions: ATCC6275, A.n. (A. niger)
Method in brief: as §1

[4] = system: Trichoderma viride (IAM 5061); test: Antifungal bioassay (MIC/MFC); format: cell-based; conditions: T.v. (T. viride)
Method in brief: as §1

A. ochraceus = test: Antifungal bioassay (MIC/MFC); format: cell-based; conditions: A.o. (A. ochraceus)
Method in brief: as §1

[5] = system: Aspergillus fumigatus (ATCC 1022); test: Antifungal bioassay (MIC/MFC); format: cell-based; conditions: ATCC1022, A.f. (A. fumigatus)
Method in brief: as §1

[6] = system: Penicillium verrucosum var. cyclopium (food isolate); test: Antifungal bioassay (MIC/MFC); format: cell-based
P. aeruginosa = test: Antibacterial microdilution (MIC/MBC); format: cell-based; conditions: Pseudomonas aeruginosa, P.a. (P. aeruginosa); for MIC: read-out: MIC
Method in brief: (§2)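 Modified microdilution; read-outs MIC (growth inhibition) and MBC (killing); refs ampicillin, streptomycin.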

M. flavus = test: Antibacterial microdilution (MIC/MBC); format: cell-based; conditions: Micrococcus flavus; M.f. (M. flavus)
Method in brief: as §2

[7] = system: Bacillus cereus (clinical isolate); test: Antibacterial microdilution (MIC/MBC); format: cell-based; conditions: Bacillus cereus, B.c. (B. cereus); for MIC: read-out: MIC
Method in brief: as §2

[8] = system: Escherichia coli (ATCC 35210); test: Antibacterial microdilution (MIC/MBC); format: cell-based; conditions: Escherichia coli, ATCC35210, E. coli; for MIC: read-out: MIC
Method in brief: as §2

[9] = system: Enterobacter cloacae (clinical isolate); test: Antibacterial microdilution (MIC/MBC); format: cell-based; conditions: Enterobacter cloacae, En.cl (En. cloacae); for MIC: read-out: MIC
Method in brief: as §2

[10] = system: Salmonella typhimurium (ATCC 13311); test: Antibacterial microdilution (MIC/MBC); format: cell-based; conditions: Salmonella enterica, S.t. (S. typhimurium); for MIC: read-out: MIC
Method in brief: as §2

[11] = system: Listeria monocytogenes (NCTC 7973); test: Antibacterial microdilution (MIC/MBC); format: cell-based; conditions: L.m. (L. monocytogenes)
Method in brief: as §2

[12] = system: Staphylococcus aureus (ATCC 6538); test: Antibacterial microdilution (MIC/MBC); format: cell-based; conditions: Staphylococcus aureus, ATCC6538, S.a. (S. aureus); for MIC: read-out: MIC
Method in brief: as §2

[13] = Penicillium ochrochloron, read-out: MIC
[14] = Trichoderma viride, IAM5061, read-out: MIC
[15] = Aspergillus ochraceus, read-out: MIC
[16] = Listeria monocytogenes, NCTC7973
[17] = Listeria monocytogenes, NCTC7973, read-out: MIC

Structure (SMILES) | MFC [1] [µg/mL] | MIC [1] [µg/mL] | MFC [2] [µg/mL] | MIC [2] [µg/mL] | MFC (P. ochrochloron; Penicillium ochrochloron) [µg/mL] | MIC (P. ochrochloron; [13]) [µg/mL] | MFC [3] [µg/mL] | MIC [3] [µg/mL] | MIC [4] [µg/mL] | MFC ([4]; Trichoderma viride, IAM5061) [µg/mL] | MIC [4, 14] [µg/mL] | MFC (A. ochraceus; Aspergillus ochraceus) [µg/mL] | MIC (A. ochraceus; [15]) [µg/mL] | MFC [5] [µg/mL] | MIC [5] [µg/mL] | MFC [6] [µg/mL] | MIC [6] [µg/mL] | melting point [°C] | MBC (P. aeruginosa) [µg/mL] | MIC (P. aeruginosa) [µg/mL] | other results
COC(=O)c1[nH]c2ccc(F)cc2c1/C=C1\SC(=S)N(c2ccc(O)cc2)C1=O [Compound 10, (Z)-methyl 5-fluoro-3-((3-(4-hydroxyphenyl)-4-oxo-2-thioxothiazolidin-5-ylidene)methyl)-1H-indole-2-carboxylate] | 15 ± 3 (≈ 35 µM) | 8 ± 0.6 (≈ 18.7 µM) | 15 ± 3 (≈ 35 µM) | 8 ± 0.6 (≈ 18.7 µM) | 15 ± 3 (≈ 35 µM) | 8 (≈ 18.7 µM) | 15 ± 3 (≈ 35 µM) | 8 ± 0.6 (≈ 18.7 µM) | 4 ± 1 (≈ 9.34 µM) | 8 ± 0.6 (≈ 18.7 µM) | 4 (≈ 9.34 µM) | 8 ± 0.6 (≈ 18.7 µM) | 4 (≈ 9.34 µM) | 120 ± 40 (≈ 280 µM) | 60 ± 6 (≈ 140 µM) | 30 ± 10 (≈ 70 µM) | 15 ± 3 (≈ 35 µM) | 267 to 268 | 60 ± 6 (≈ 140 µM) | 30 ± 10 (≈ 70 µM) | MIC (P. ochrochloron): 8 ± 0.6 µg/mL (≈ 18.7 µM); MIC (A. ochraceus): 4 ± 1 µg/mL (≈ 9.34 µM); MBC (M. flavus): 60 ± 6 µg/mL (≈ 140 µM); MIC (M. flavus): 45 ± 3 µg/mL (≈ 105 µM); MBC [7]: 60 ± 6 µg/mL (≈ 140 µM); MIC [7]: 30 ± 10 µg/mL (≈ 70 µM); MBC [8]: 60 ± 6 µg/mL (≈ 140 µM); MIC [8]: 30 ± 10 µg/mL (≈ 70 µM); MBC [9]: 60 ± 6 µg/mL (≈ 140 µM); MIC [9]: 30 ± 10 µg/mL (≈ 70 µM); MBC [10]: 60 ± 6 µg/mL (≈ 140 µM); MIC [10]: 45 ± 3 µg/mL (≈ 105 µM); MBC [11, 16]: 60 ± 6 µg/mL (≈ 140 µM); MIC [11, 17]: 30 ± 10 µg/mL (≈ 70 µM); MBC [12]: 60 ± 6 µg/mL (≈ 140 µM); MIC [12]: 30 ± 10 µg/mL (≈ 70 µM)
COC(=O)c1[nH]c2ccccc2c1/C=C1\SC(=S)N(C(C(=O)O)C(C)C)C1=O (stereo not drawn) [Compound 12, (Z)-2-(5-((2-(methoxycarbonyl)-1H-indol-3-yl)methylene)-4-oxo-2-thioxothiazolidin-3-yl)-3-methylbutanoic acid] | 15 ± 3 (≈ 35.8 µM) | 8 ± 0.6 (≈ 19.1 µM) | 30 ± 10 (≈ 71.7 µM) | 15 ± 3 (≈ 35.8 µM) | 30 ± 10 (≈ 71.7 µM) | 15 ± 3 (≈ 35.8 µM) | 30 ± 10 (≈ 71.7 µM) | 22 ± 5 (≈ 52.6 µM) | 8 ± 0.6 (≈ 19.1 µM) | 15 ± 3 (≈ 35.8 µM) | 8 (≈ 19.1 µM) | 15 ± 3 (≈ 35.8 µM) | 8 ± 0.6 (≈ 19.1 µM) | 120 ± 40 (≈ 287 µM) | 60 ± 6 (≈ 143 µM) | 60 ± 6 (≈ 143 µM) | 30 ± 10 (≈ 71.7 µM) | 256 to 258 | 30 ± 10 (≈ 71.7 µM) | 15 ± 9 (≈ 35.8 µM) | MBC (M. flavus): 60 ± 6 µg/mL (≈ 143 µM); MIC (M. flavus): 30 ± 10 µg/mL (≈ 71.7 µM); MBC [7]: 60 ± 6 µg/mL (≈ 143 µM); MIC [7]: 30 ± 10 µg/mL (≈ 71.7 µM); MBC [8]: 30 ± 10 µg/mL (≈ 71.7 µM); MBC [9]: 60 ± 6 µg/mL (≈ 143 µM); MIC [9]: 15 µg/mL (≈ 35.8 µM); MBC [10]: 8 ± 9 µg/mL (≈ 19.1 µM); MIC [11]: 15 ± 1 µg/mL (≈ 35.8 µM); MBC [11, 16]: 30 ± 10 µg/mL (≈ 71.7 µM); MIC [11, 17]: 15 µg/mL (≈ 35.8 µM); MBC [12]: 60 ± 6 µg/mL (≈ 143 µM); MIC [12]: 30 ± 10 µg/mL (≈ 71.7 µM)
COC(=O)c1[nH]c2ccc(F)cc2c1/C=C1\SC(=S)N(C)C1=O [Compound 15, (Z)-methyl 5-fluoro-3-((3-methyl-4-oxo-2-thioxothiazolidin-5-ylidene)methyl)-1H-indole-2-carboxylate] | 15 ± 3 (≈ 42.8 µM) | 8 ± 0.6 (≈ 22.8 µM) | 15 ± 3 (≈ 42.8 µM) | 8 ± 0.6 (≈ 22.8 µM) | 15 ± 3 (≈ 42.8 µM) | 8 (≈ 22.8 µM) | 15 ± 3 (≈ 42.8 µM) | 8 ± 0.6 (≈ 22.8 µM) | 8 ± 0.6 (≈ 22.8 µM) | 15 ± 3 (≈ 42.8 µM) | 8 (≈ 22.8 µM) | 15 ± 3 (≈ 42.8 µM) | 8 ± 0.6 (≈ 22.8 µM) | 30 ± 10 (≈ 85.6 µM) | 15 ± 3 (≈ 42.8 µM) | 15 ± 3 (≈ 42.8 µM) | 8 ± 0.6 (≈ 22.8 µM) | 234 to 244 | 60 ± 6 (≈ 171 µM) | 30 ± 10 (≈ 85.6 µM) | MIC (P. ochrochloron): 8 ± 0.6 µg/mL (≈ 22.8 µM); MBC (M. flavus): 60 ± 6 µg/mL (≈ 171 µM); MIC (M. flavus): 45 ± 3 µg/mL (≈ 128 µM); MBC [7]: 60 ± 6 µg/mL (≈ 171 µM); MIC [7]: 30 ± 10 µg/mL (≈ 85.6 µM); MBC [8]: 60 ± 6 µg/mL (≈ 171 µM); MIC [8]: 45 ± 3 µg/mL (≈ 128 µM); MBC [9]: 60 ± 6 µg/mL (≈ 171 µM); MIC [9]: 30 ± 10 µg/mL (≈ 85.6 µM); MBC [10]: 60 ± 6 µg/mL (≈ 171 µM); MIC [10]: 45 ± 3 µg/mL (≈ 128 µM); MBC [11, 16]: 60 ± 6 µg/mL (≈ 171 µM); MIC [11, 17]: 45 ± 3 µg/mL (≈ 128 µM); MBC [12]: 30 ± 10 µg/mL (≈ 85.6 µM); MIC [12]: 22 ± 5 µg/mL (≈ 62.8 µM)
COC(=O)c1[nH]c2ccc(F)cc2c1/C=C1\SC(=S)N(N2CCOCC2)C1=O [Compound 16, (Z)-methyl 5-fluoro-3-((3-morpholino-4-oxo-2-thioxothiazolidin-5-ylidene)methyl)-1H-indole-2-carboxylate] | 30 ± 10 (≈ 71.2 µM) | 15 ± 3 (≈ 35.6 µM) | 30 ± 10 (≈ 71.2 µM) | 15 ± 3 (≈ 35.6 µM) | 30 ± 10 (≈ 71.2 µM) | 15 ± 3 (≈ 35.6 µM) | 30 ± 10 (≈ 71.2 µM) | 15 ± 3 (≈ 35.6 µM) | 8 ± 0.6 (≈ 19 µM) | 15 ± 3 (≈ 35.6 µM) | 8 (≈ 19 µM) | 30 ± 10 (≈ 71.2 µM) | 15 ± 3 (≈ 35.6 µM) | 30 ± 10 (≈ 71.2 µM) | 15 ± 3 (≈ 35.6 µM) | 30 ± 10 (≈ 71.2 µM) | 15 ± 3 (≈ 35.6 µM) | 273 to 274 | 60 ± 6 (≈ 142 µM) | 30 ± 10 (≈ 71.2 µM) | MBC (M. flavus): 60 ± 6 µg/mL (≈ 142 µM); MIC (M. flavus): 45 ± 3 µg/mL (≈ 107 µM); MBC [7]: 30 ± 10 µg/mL (≈ 71.2 µM); MIC [7]: 15 ± 9 µg/mL (≈ 35.6 µM); MBC [8]: 60 ± 6 µg/mL (≈ 142 µM); MIC [8]: 30 ± 10 µg/mL (≈ 71.2 µM); MBC [9]: 60 ± 6 µg/mL (≈ 142 µM); MIC [9]: 45 ± 3 µg/mL (≈ 107 µM); MBC [10]: 60 ± 6 µg/mL (≈ 142 µM); MIC [10]: 45 ± 3 µg/mL (≈ 107 µM); MBC [11, 16]: 60 ± 6 µg/mL (≈ 142 µM); MIC [11, 17]: 45 ± 3 µg/mL (≈ 107 µM); MBC [12]: 30 ± 10 µg/mL (≈ 71.2 µM); MIC [12]: 22 ± 5 µg/mL (≈ 52.2 µM)
